Measurements: patent US20180271930A1, “METHOD FOR RAISING POULTRY” (priority 2015, published 2018)

How the values were obtained:
[1] = Examination 4: body weight of chicks raised until 35 days old after feeding GSSG or GSH for 3 days; format: in vivo, broiler chicks; details: 0.01% by mass additive in feed for 3 days; n = 6, average ± standard deviation
Protocol: Newly hatched broiler chicks (Ross Breeders Ltd.) were tested. A control group (=additive-free group), a GSSG addition group (0.01% by mass), and a GSH addition group (0.01% by mass) each consisting of 5 males and 5 females were set and fed with a feed composition for 3 days. […] At this timing, 2 males and 2 females in each group were slaughtered to collect blood and skeletal muscles. The gene expression levels of the MyoD family (myogenin, myostatin, and Pax7) were observed. […] Statistics were analyzed using a mixed model in consideration of a gender difference and an interaction between males and females. An ammonium salt was used as oxidized glutathione (GSSG). The GSSG contained 95.6% by mass of oxidized glutathione, and the content of reduced glutathione mixed therein was 0.1% by mass or less. […] A feed composition, for which the amount of oxidized glutathione (GSSG) added was set to 0.01% by mass, is described in Examination 1. A feed composition, for which the amount of reduced glutathione (GSH) added was set to 0.01% by mass, was prepared by adding 0.01% by mass of GSH, instead of 0.01% by mass of GSSG, to the GSSG-containing feed composition described in detail in Examination 1.

myogenin = assay: Examination 4: myogenin gene expression in superficial pectoral muscle at 3 days old; format: in vivo, broiler chicks; details: 0.01% by mass additive in feed for 3 days, FIG. 3A, n=4
Protocol: FIGS. 3A to 3C illustrate graphs showing the expression of genes related to skeletal muscle cell differentiation in superficial pectoral muscles upon administration of each feed composition in Examination 4 (n=4). […] A relative value of the expression level of each factor is expressed as an average±standard deviation of values obtained by dividing the expression levels of each factor by the expression level of RPS9. Newly hatched broiler chicks (Ross Breeders Ltd.) were tested. A control group (=additive-free group), a GSSG addition group (0.01% by mass), and a GSH addition group (0.01% by mass) each consisting of 5 males and 5 females were set and fed with a feed composition for 3 days. […] At this timing, 2 males and 2 females in each group were slaughtered to collect blood and skeletal muscles. The gene expression levels of the MyoD family (myogenin, myostatin, and Pax7) were observed. […] Statistics were analyzed using a mixed model in consideration of a gender difference and an interaction between males and females. A method for determining gene expressions of the above factors in skeletal muscles is described above. An ammonium salt was used as oxidized glutathione (GSSG). The GSSG contained 95.6% by mass of oxidized glutathione, and the content of reduced glutathione mixed therein was 0.1% by mass or less. […]

## N[C@@H](CCC(=O)N[C@@H](CS)C(=O)NCC(=O)O)C(=O)O [GSH, N—(N-γ-L-glutamyl-L-cysteinyl)glycine, reference compound]
[1]
  Weight, 14 days old: 512.7 ± 79.8 g
  Weight, 35 days old: 2052 ± 267 g
myogenin
  myogenin expression level vs control group: smaller than the decrease
